According to US10208033B2, “β-carboline, dihydro-β-carboline and tetrahydro-β-carboline alkaloid derivatives and preparation methods same and use in aspects of preventing and treating plant viruses, fungicides and insecticides” (NANKAI UNIVERSITY, priority 2013, dated 2019):

Assays:
[1] = test system: tobacco mosaic virus (TMV); experiment: Anti-TMV in vivo therapeutic effect; design: species or system tobacco mosaic virus (host Nicotiana tabacum L.cv.Xanthi NN); conditions: Tobacco mosaic virus, read-out: Relative inhibition rate (%) In vivo therapy; for inhibition at 100 µg/mL: treatment dose 100 μg/mL; for inhibition at 500 µg/mL: treatment dose 500 μg/mL
[2] = test system: Colletotrichum orbiculare; experiment: Fungicidal (bactericidal) activity in vitro, PDA colony diameter; assay type: cell-based; conditions: Colletotrichum orbiculare, 96 h; 50 mg/kg
[3] = test system: corn borers; experiment: whole plant or invertebrate; conditions: read-out: Corn borer Mortality (%)
[4] = test system: Botrytis cinerea; experiment: Fungicidal (bactericidal) activity in vitro, PDA colony diameter; assay type: cell-based; conditions: Botrytis cinerea, 96 h; 50 mg/kg
[5] = test system: tobacco mosaic virus (TMV); experiment: Anti-TMV in vivo inactivation; design: species or system tobacco mosaic virus (host Nicotiana tabacum L.cv.Xanthi NN); conditions: Tobacco mosaic virus, read-out: Relative inhibition rate (%) In vivo inactivation; for inhibition at 100 µg/mL: treatment dose 100 μg/mL; for inhibition at 500 µg/mL: treatment dose 500 μg/mL
[6] = test system: Bipolaria maydis; experiment: organism not typed; assay type: cell-based; conditions: read-out: Bactericidal activity (%) Bipolaria maydis
[7] = test system: tobacco mosaic virus (TMV); experiment: Anti-TMV in vivo protective effect; design: species or system tobacco mosaic virus (host Nicotiana tabacum L.cv.Xanthi NN); conditions: Tobacco mosaic virus, read-out: Relative inhibition rate (%) In vivo protection; for inhibition at 100 µg/mL: treatment dose 100 μg/mL; for inhibition at 500 µg/mL: treatment dose 500 μg/mL
[8] = test system: Macrophoma kawatsukai; experiment: Fungicidal (bactericidal) activity in vitro, PDA colony diameter; assay type: cell-based; conditions: 50 mg/kg
[9] = test system: Phytophthora capsici; experiment: as above; assay type: cell-based; conditions: Phytophthora capsici, 96 h; 50 mg/kg
[10] = test system: Rhizoctonia cereali; experiment: as above; assay type: cell-based; conditions: Rhizoctonia, 96 h; 50 mg/kg
[11] = test system: tobacco mosaic virus (TMV); experiment: Anti-TMV in vitro effect (half-leaf soaking); assay type: cell-based, tobacco mosaic virus (host Nicotiana tabacum L.cv.Xanthi NN); conditions: Tobacco mosaic virus, read-out: Relative inhibition rate (%) In vitro activity; for inhibition at 100 µg/mL: treatment dose 100 μg/mL; for inhibition at 500 µg/mL: treatment dose 500 μg/mL
[12] = test system: mosquito larvae; experiment: whole plant or invertebrate; conditions: Culex pipiens, 24 h, read-out: Mosquito larvae Mortality (%)
Method in brief: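 Compound dissolved in acetone (or other solvent) to a 1000 ppm stock and diluted in water to 5 ppm. Ten Culex pipiens pallens larvae at the start of the fourth instar, laboratory-reared, added per beaker; solvent-only aqueous control.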

[13] = test system: cucumber fusarium wilt; experiment: Fungicidal (bactericidal) activity in vitro, PDA colony diameter; assay type: cell-based; conditions: Fusarium, 96 h; 50 mg/kg
[14] = test system: Alternaria solani; experiment: as above; assay type: cell-based; conditions: Alternaria solani, 96 h; 50 mg/kg
[15] = test system: Sclerotinia scleotiorum; experiment: as above; assay type: cell-based; conditions: Sclerotinia, 96 h; 50 mg/kg
[16] = test system: Cercospora arachidicola; experiment: as above; assay type: cell-based; conditions: Mycosphaerella arachidis, 96 h; 50 mg/kg
[17] = test system: Fusarium fujikuroi; experiment: as above; assay type: cell-based; conditions: Fusarium fujikuroi, 96 h; 50 mg/kg
[18] = test system: cotton bollworms; experiment: whole plant or invertebrate; conditions: Helicoverpa armigera, in Gossypium hirsutum, read-out: Cotton bollworm Mortality (%)
Protocol: Experimental method of cotton bollworms: feed and drug mixing method: measure 3 mL of prepared solution and add it to about 27 g of newly prepared feed, thereby obtaining needed concentration through dilution by 10 times.

[19] = test system: Rhizoctonia solani; experiment: Fungicidal (bactericidal) activity in vitro, PDA colony diameter; assay type: cell-based; conditions: Rhizoctonia solani, 96 h; 50 mg/kg
[20] = test system: potato late blight; experiment: microbe, parasite or virus in culture; assay type: cell-based; conditions: Phytophthora infestans, 96 h, read-out: Bactericidal activity (%) potato late blight
[21] = test system: Fusarium graminearumt; experiment: microbe, parasite or virus in culture; assay type: cell-based; conditions: Fusarium, 96 h, read-out: Bactericidal activity (%) Fusarium graminearumt
[22] = test system: armyworms; assay type: in vivo; conditions: concentration 600 mg/kg

Structure (SMILES) | inhibition at 100 µg/mL [1] | inhibition at 500 µg/mL [1] | inhibition of growth at 50 mg/kg [2] | mortality at 600 mg/kg [3] | inhibition of growth at 50 mg/kg [4] | inhibition at 100 µg/mL [5] | inhibition at 500 µg/mL [5] | inhibition at 50 mg/kg [6] | inhibition at 100 µg/mL [7] | inhibition at 500 µg/mL [7] | inhibition at 50 mg/kg [8] | inhibition of growth at 50 mg/kg [9] | inhibition of growth at 50 mg/kg [10] | inhibition at 100 µg/mL [11] | inhibition at 500 µg/mL [11] | mortality at 10 mg/kg [12] | inhibition of growth at 50 mg/kg [13] | inhibition of growth at 50 mg/kg [14] | inhibition of growth at 50 mg/kg [15] | inhibition of growth at 50 mg/kg [16] | also measured
C[C@@H]1N[C@H](C(=O)O)Cc2c1[nH]c1ccccc21 [Ib-1, (1S, 3S)-1-methyl-2,3,4,9-tetrahydropyridino [3,4-b] indol-3-formic acid] | 15.8% | 40.4% | 35.7% | 25% | 21.2% | 13.5% | 35.5% | 22.7% | 20% | 41.3% | 23.8% | 18.8% | 42.1% | 18.9% | 41.6% | 55% | 19.2% | 21.1% | 7.8% | 30.8% | inhibition of growth at 50 mg/kg [17]: 21.4%; mortality at 600 mg/kg [18]: 25%; inhibition of growth at 50 mg/kg [19]: 26.3%; inhibition of growth at 50 mg/kg [20]: 27.3%; inhibition of growth at 50 mg/kg [21]: 26.2%; Armyworm Mortality (%) [22]: 25%
C[C@H]1N[C@@H](C(=O)O)Cc2c1[nH]c1ccccc21 [Ib-2, (1R,3R)-1-methyl-2,3,4,9-tetrahydropyridino [3,4-b] indol-3-formic acid] | 0% | 31.5% | 25% | 10% | 18.2% | 0% | 28.6% | 9.1% | 0% | 29.7% | 23.8% | 15.6% | 31.6% | 0% | 25% | 30% | 23.1% | 0% | 23.5% | 61.5% | inhibition of growth at 50 mg/kg [17]: 0%; mortality at 600 mg/kg [18]: 25%; inhibition of growth at 50 mg/kg [19]: 29%; inhibition of growth at 50 mg/kg [20]: 4.6%; inhibition of growth at 50 mg/kg [21]: 21.4%; Armyworm Mortality (%) [22]: 10%
O=C(O)[C@@H]1Cc2c([nH]c3ccccc23)[C@H](c2ccccc2)N1 [Ib-5, (1S, 3S)-1-phenyl-2,3,4,9-tetrahydropyridino [3,4-b] indol-3-formic acid] | 0% | 24.3% | 35.7% | 35% | 21.2% | 0% | 27.6% | 22.7% | 0% | 32.3% | 11.9% | 12.5% | 44.7% | 0% | 19.7% | 100% | 19.2% | 15.8% | 9.8% | 69.2% | mortality at 5 mg/kg [12]: 30%; inhibition of growth at 50 mg/kg [17]: 42.9%; mortality at 600 mg/kg [18]: 30%; inhibition of growth at 50 mg/kg [19]: 36.8%; inhibition of growth at 50 mg/kg [20]: 22.7%; inhibition of growth at 50 mg/kg [21]: 26.2%; Armyworm Mortality (%) [22]: 50%
